# Reference: patent EP1923473B1, “Bis-diglycolamides (BISDGA) as new extractants for lanthanides [Ln(III)] and actinides [An(III)] from aqueous high-level wastes” (Universidad Autónoma de Madrid, priority 2006, dated 2008)
# Assays:
# [1] = Batch extraction from simulated HLLW from the PUREX process, alpha spectrometry; type: physicochemical; settings: 0.1 mol/L in TPH/1-octanol (90:10)
# From the text: (§1) The feed solution used for the extraction tests is a simulated solution of an HLLW from the PUREX process, the composition of which is shown in Table 4. Table 4: Composition of the simulated HLLW-PUREX solution used for the extraction tests
# (§2) The composition of the HLLW corresponds to a burn-up of 33 GWd/tHM, the generated volume of HLLW being 5000 1/t of fuel. The feed was spiked with ^241Am, ^244Cm, ^252Cf and ^152Eu. Oxalic acid and N-(2-hydroxyethyl)ethylenediaminotriacetate (HEDTA) were also added before the extraction tests.
# (§3) 500 µL of the aqueous and organic phases were spiked with 10 µL of a tracer solution containing 241Am, 244Cm, 252Cf and ^152Eu, and were equilibrated for 10 minutes while they were stirred vigorously in a vortex stirrer. After the separation of the phases by centrifugation, 200 µL aliquots of each phase were taken for the determination of the concentration of ^241Am and ^152Eu using a high-purity germanium spectrometer system (EG&G Ortec). The nuclides ^241Am, ^244Cm and ^252Cf were measured by alpha spectrometry with an α-Analyst device of the company Canberra-Packard GmbH, Germany.
# (§4) The concentrations of the stable elements were determined by mass spectrometry with an inductively coupled plasma source (ICP-MS) in a DRC Elan 6100 device of Perkin Elmer Sciex. The aqueous phase was measured directly after the appropriate dilution. The organic phase was analyzed after having mineralized the organic matter by microwave acid digestion and subsequent dilution.
# (§5) The distribution coefficients were calculated for each element according to section C).
# (§6) A 0.1 mol/L solution of compound 4 in the "TPH/1-octanol (90:10)%vol" mixture was prepared. Extraction experiments were carried out with said simulated HLLW in a pure form and also adding oxalic acid and HEDTA to it. These complexing agents have shown to be effective in the DIAMEX process for the complexing of Mo, Zr (H2C2O4) and Pd (HEDTA).
# (§7) Extraction experiments were carried out with said simulated HLLW in a pure form and also adding oxalic acid and HEDTA to it.
# [2] = Batch extraction from simulated HLLW from the PUREX process; type: physicochemical; settings: 0.1 mol/L in TPH/1-octanol (90:10)
# From the text: as §1, §2, §3, §4, §5, §6, §7
# [3] = Oxalic acid 0.2 mol/L, HEDTA 0.05 mol/L, TBP 0.5 mol/L
# [4] = Oxalic acid 0.2 mol/L, HEDTA 0.05 mol/L, TBP No
# [5] = Oxalic acid 0.3 mol/L, HEDTA 0.05 mol/L, TBP 0.5 mol/L
# [6] = Oxalic acid 0.3 mol/L, HEDTA 0.05 mol/L, TBP No
# [7] = Oxalic acid No, HEDTA No, TBP 0.5 mol/L
# [8] = Oxalic acid No, HEDTA No, TBP No
substance,measurement,setting,value
2-Dioctylcarbamoylmethoxy-N-[3-[3-(2-dioctylcarbamoyl-methoxyacetylamino)propoxy]propyl]acetamide [Compound 18],"Distribution coefficients Am-241, α",[1]; [3],55
same,"Distribution coefficients Am-241, α",[1]; [4],46
same,"Distribution coefficients Am-241, α",[1]; [5],90
same,"Distribution coefficients Am-241, α",[1]; [6],87
same,"Distribution coefficients Am-241, α",[1]; [7],56
same,"Distribution coefficients Am-241, α",[1]; [8],96
same,Distribution coefficients Ag,[2]; [3],0.19
same,Distribution coefficients Ba,[2]; [3],0.0008
same,Distribution coefficients Cd,[2]; [3],0.022
same,Distribution coefficients Ce,[2]; [3],20
same,Distribution coefficients Cf-252,[2]; [3],666
same,Distribution coefficients Cm-244,[2]; [3],95
same,Distribution coefficients Cs,[2]; [3],0.0005
same,Distribution coefficients Eu,[2]; [3],309
same,Distribution coefficients Eu-152,[2]; [3],282
same,Distribution coefficients Gd,[2]; [3],140
same,Distribution coefficients La,[2]; [3],12
same,Distribution coefficients Mo,[2]; [3],0.15
same,Distribution coefficients Nd,[2]; [3],69
same,Distribution coefficients Pd,[2]; [3],0.05
same,Distribution coefficients Pr,[2]; [3],32
same,Distribution coefficients Rb,[2]; [3],0.008
same,Distribution coefficients Rh,[2]; [3],0.003
same,Distribution coefficients Ru,[2]; [3],0.22
same,Distribution coefficients Sm,[2]; [3],284
same,Distribution coefficients Y,[2]; [3],631
same,Distribution coefficients Zr,[2]; [3],0.18
same,Distribution coefficients Ag,[2]; [4],0.5
same,Distribution coefficients Ba,[2]; [4],0.0008
same,Distribution coefficients Cd,[2]; [4],0.032
same,Distribution coefficients Ce,[2]; [4],24
same,Distribution coefficients Cf-252,[2]; [4],511
same,Distribution coefficients Cm-244,[2]; [4],85
same,Distribution coefficients Cs,[2]; [4],0.0004
same,Distribution coefficients Eu,[2]; [4],341
same,Distribution coefficients Eu-152,[2]; [4],523
same,Distribution coefficients Gd,[2]; [4],197
same,Distribution coefficients La,[2]; [4],12
same,Distribution coefficients Mo,[2]; [4],0.21
same,Distribution coefficients Nd,[2]; [4],101
same,Distribution coefficients Pd,[2]; [4],0.10
same,Distribution coefficients Pr,[2]; [4],44
same,Distribution coefficients Rb,[2]; [4],0.008
same,Distribution coefficients Rh,[2]; [4],0.004
same,Distribution coefficients Ru,[2]; [4],0.21
same,Distribution coefficients Sm,[2]; [4],432
same,Distribution coefficients Y,[2]; [4],618
same,Distribution coefficients Zr,[2]; [4],0.51
same,Distribution coefficients Ag,[2]; [5],0.08
same,Distribution coefficients Ba,[2]; [5],0.0008
same,Distribution coefficients Cd,[2]; [5],0.024
same,Distribution coefficients Ce,[2]; [5],22
same,Distribution coefficients Cf-252,[2]; [5],1353
same,Distribution coefficients Cm-244,[2]; [5],164
same,Distribution coefficients Cs,[2]; [5],0.0004
same,Distribution coefficients Eu,[2]; [5],335
same,Distribution coefficients Eu-152,[2]; [5],330
same,Distribution coefficients Gd,[2]; [5],146
same,Distribution coefficients La,[2]; [5],12
same,Distribution coefficients Mo,[2]; [5],0.19
same,Distribution coefficients Nd,[2]; [5],78
same,Distribution coefficients Pd,[2]; [5],0.02
same,Distribution coefficients Pr,[2]; [5],35
same,Distribution coefficients Rb,[2]; [5],0.008
same,Distribution coefficients Rh,[2]; [5],0.003
same,Distribution coefficients Ru,[2]; [5],0.23
same,Distribution coefficients Sm,[2]; [5],363
same,Distribution coefficients Y,[2]; [5],811
same,Distribution coefficients Zr,[2]; [5],0.06
same,Distribution coefficients Ag,[2]; [6],0.14
same,Distribution coefficients Ba,[2]; [6],0.0008
same,Distribution coefficients Cd,[2]; [6],0.034
same,Distribution coefficients Ce,[2]; [6],24
same,Distribution coefficients Cf-252,[2]; [6],1451
same,Distribution coefficients Cm-244,[2]; [6],163
same,Distribution coefficients Cs,[2]; [6],0.0006
same,Distribution coefficients Eu,[2]; [6],275
same,Distribution coefficients Eu-152,[2]; [6],436
same,Distribution coefficients Gd,[2]; [6],196
same,Distribution coefficients La,[2]; [6],12
same,Distribution coefficients Mo,[2]; [6],0.19
same,Distribution coefficients Nd,[2]; [6],97
same,Distribution coefficients Pd,[2]; [6],0.04
same,Distribution coefficients Pr,[2]; [6],43
same,Distribution coefficients Rb,[2]; [6],0.008
same,Distribution coefficients Rh,[2]; [6],0.003
same,Distribution coefficients Ru,[2]; [6],0.18
same,Distribution coefficients Sm,[2]; [6],331
same,Distribution coefficients Y,[2]; [6],455
same,Distribution coefficients Zr,[2]; [6],0.13
same,Distribution coefficients Ag,[2]; [7],6.8
same,Distribution coefficients Ba,[2]; [7],0.0008
same,Distribution coefficients Cd,[2]; [7],0.015
same,Distribution coefficients Ce,[2]; [7],14
same,Distribution coefficients Cf-252,[2]; [7],605
same,Distribution coefficients Cm-244,[2]; [7],102
same,Distribution coefficients Cs,[2]; [7],0.0004
same,Distribution coefficients Eu,[2]; [7],299
same,Distribution coefficients Eu-152,[2]; [7],393
same,Distribution coefficients Gd,[2]; [7],126
same,Distribution coefficients La,[2]; [7],8.5
same,Distribution coefficients Mo,[2]; [7],0.06
same,Distribution coefficients Nd,[2]; [7],49
same,Distribution coefficients Pd,[2]; [7],2.2
same,Distribution coefficients Pr,[2]; [7],24
same,Distribution coefficients Rb,[2]; [7],0.008
same,Distribution coefficients Rh,[2]; [7],0.003
same,Distribution coefficients Ru,[2]; [7],0.28
same,Distribution coefficients Sm,[2]; [7],234
same,Distribution coefficients Y,[2]; [7],1119
same,Distribution coefficients Zr,[2]; [7],16.5
same,Distribution coefficients Ag,[2]; [8],5.8
same,Distribution coefficients Ba,[2]; [8],0.0008
same,Distribution coefficients Cd,[2]; [8],0.021
same,Distribution coefficients Ce,[2]; [8],17
same,Distribution coefficients Cf-252,[2]; [8],1352
same,Distribution coefficients Cm-244,[2]; [8],165
same,Distribution coefficients Cs,[2]; [8],0.0004
same,Distribution coefficients Eu,[2]; [8],267
same,Distribution coefficients Eu-152,[2]; [8],499
same,Distribution coefficients Gd,[2]; [8],160
same,Distribution coefficients La,[2]; [8],10
same,Distribution coefficients Mo,[2]; [8],0.09
same,Distribution coefficients Nd,[2]; [8],74
same,Distribution coefficients Pd,[2]; [8],1.7
same,Distribution coefficients Pr,[2]; [8],32
same,Distribution coefficients Rb,[2]; [8],0.008
same,Distribution coefficients Rh,[2]; [8],0.004
same,Distribution coefficients Ru,[2]; [8],0.24
same,Distribution coefficients Sm,[2]; [8],266
same,Distribution coefficients Y,[2]; [8],574
same,Distribution coefficients Zr,[2]; [8],9.1
